Test results reported in patent publication US20120190748A1, “GREATER UTILITY WITH THYROID HORMONE” (priority 2009, published 2012).

How the values were obtained:
[1] = test system: Thyroid Binding Globulin, Transthyretin and Albumin; conditions: cited from earlier work; for bound within the blood stream (protein binding): bound by Thyroid Binding Globulin, Transthyretin and Albumin
[2] = Case report: oral thyroid hormone regimens in one subject (Sam) after radioactive iodine ablation for Grave's disease; type: in vivo, human
Procedure: The subject (Sam), of this case report, was treated with radioactive iodine ablation with a relatively low dose. Prior to diagnosis of Grave's disease, Sam was never known to have free T4 levels above median, and had always maintained the same weight +/−3 lbs beyond the age of 18.
Over the next several years, attempting to ameliorate symptoms, Sam attempted to treat the hypothyroid state with the following means: 0.175 mg of T4 OD, resulting in palpitations, anxiety, stiffness, chest tightness, insomnia, sclerotic skin changes, sweating and heat intolerance within 6 months of initiating therapy. The severity of the symptoms required Sam to return to return to 0.15 mg OD of T4 within 1 week of experiencing the symptoms—remaining at that dose for 6 weeks. […] This was followed by an attempt to treat with: 0.125 mg of T4 with 0.005 mg of T3 OD, resulting in palpitations, anxiety, stiffness, chest tightness, insomnia, sclerotic skin changes, sweating and heat intolerance within 3 weeks of initiating therapy. The severity of the symptoms required Sam to return to 0.15 mg OD of T4 within 2 days of experiencing these symptoms—remaining at that dose for 6 weeks with resolution of the adrenergic symptoms. This was followed by an attempt to treat with: 0.035 mg of T3 OD, resulting in palpitations, anxiety, stiffness, chest tightness, insomnia, sclerotic skin changes, sweating and heat intolerance within 1 week of initiating therapy. The severity of the symptoms required Sam to return to 0.15 mg OD of T4 within 1 day of experiencing these symptoms—remaining at that dose for 6 weeks with resolution of the adrenergic symptoms. This was followed by an attempt to treat with: 0.005 mg of T3 q3:25hours, resulting in palpitations, anxiety, stiffness, chest tightness, insomnia, sclerotic skin changes, sweating and heat intolerance within 1 week of initiating therapy. The severity of the symptoms required Sam to return to 0.15 mg OD of T4 within 1 day of experiencing symptoms—remaining at that dose for many years, with continued nasal congestion and dysphoria.
Then the symptoms all stopped. […] Sam continued this dose for several months. […] Dysphoria and nasal congestion were improved over that which was present with once daily dosing, but still remained present, so Sam attempted to treat with the following: 0.075 mg of T4 q6hours, resulting in dysphoria, nasal congestion, and mild to moderate palpitations, anxiety, stiffness, chest tightness, insomnia, sweating and heat intolerance for 2 days, then the symptoms stopped, until Sam changed treatment to: 0.05 mg of T4 q4hours, resulting in dysphoria, nasal congestion, and mild palpitations, anxiety, stiffness, chest tightness, insomnia, sweating and heat intolerance for 2 days, then the symptoms stopped, with an even greater sense of well being than had been experienced on previous treatment regimes, but Sam further increased the dose to: 0.05 mg of T4 q3hrous, resulting in dysphoria, nasal congestion, and mild palpitations, anxiety, stiffness, chest tightness, insomnia, sclerotic skin changes, sweating and heat intolerance for 3 weeks, then the symptoms stopped. Sam remained on this dose for a period of approximately 3 years. […] Weight loss of 40 lbs (with a resulting body fat of 26% by electrical impedance, and lean mass of 100 lbs.) over the first 15 months occurred followed by weight gain of 15 lbs over the next 15 months (with a resulting body fat of 28% by electrical impedance, and lean mass of 108 lbs.). A reduced incidence and duration of common colds was noted, while at steady state over the 3 year period. On one occasion, when the expiry date of T4 administered was several months nearer to the time of administration, than that of T4 typically administered by Sam, within one day, onset of dysphoria, nasal congestion, palpitations, insomnia, anorexia, night sweats, cold sweats, cold intolerance, weakness and the sensation of weight loss occurred; the symptoms resolved within three days. […]

[3] = extended due to protein binding; human body; cited from earlier work
[4] = T3 compared with T4; cited from earlier work
[5] = 0.05 mg of T4 q3hrous, after the first 15 months
[6] = 0.05 mg of T4 q3hrous, after the next 15 months
[7] = 0.05 mg of T4 q3hrous, at 2.7 years
[8] = dose reduced to 0.05 mg of T4 q4hours, within the first 2 weeks

N[C@@H](Cc1cc(I)c(Oc2cc(I)c(O)c(I)c2)c(I)c1)C(=O)O [T4, 3,5,3′,5′ tetraiodo-L-thyronine]
bound more tightly than T3 ([1]; T4 relative to T3): roughly 10 times | bound within the blood stream (protein binding) [1]: 99.96% | duration of dysphoria, nasal congestion and mild adrenergic symptoms ([2]; 0.05 mg of T4 q3hrous): 3 weeks | body fat by electrical impedance [2, 5]: 26% | lean mass [2, 5]: 100 lbs | body fat by electrical impedance [2, 6]: 28% | lean mass [2, 6]: 108 lbs | Free T4 concentration, gradual decrease ([2]; 0.05 mg of T4 q3hrous, approximately 3 years, remained far above normal): 15% | EKG heart rate (normal sinus rhythm) [2, 7]: 71 beats per minute | blood glucose [2, 7]: normal blood glucose | lipid profile [2, 7]: exceptional lipid profile | serum calcium [2, 7]: slightly above the upper limit of normal | weight loss ([2]; 0.05 mg of T4 q3hrous, over the first 15 months): 40 lbs | weight gain ([2]; 0.05 mg of T4 q3hrous, over the next 15 months): 15 lbs | duration of dysphoria, nasal congestion and mild adrenergic symptoms ([2]; 0.05 mg of T4 q4hours (first time)): 2 days | duration of dysphoria, nasal congestion and mild to moderate adrenergic symptoms ([2]; 0.075 mg of T4 q6hours): 2 days | weight loss ([2]; 0.075 mg of T4 q8hours): 2-3 pounds | duration of dysphoria, nasal congestion and mild to moderate adrenergic symptoms ([2]; 0.088 mg of T4 q8hours): three weeks | effect on previous symptoms (weight gain, body fat increase, insomnia, anorexia, night sweats, cold intolerance, weakness etc.) ([2]; 0.088 mg of T4 q8hours): resolution of the previous symptoms within one week | T4 concentrations ([2]; 0.088 mg of T4 q8hours, continued for several months): higher than normal range | duration of dysphoria, nasal congestion and mild to moderate adrenergic symptoms ([2]; 0.1 mg of T4 q8hours): three weeks | weight gain ([2]; 0.1 mg of T4 q8hours): 2-3 pounds | change in weight (mean, persistent) ([2]; 0.125 mg OD of T4, following several months of treatment): 5 lbs | time to palpitations, anxiety, stiffness, chest tightness, insomnia, sclerotic skin changes, sweating and heat intolerance after initiating therapy ([2]; 0.175 mg of T4 OD): ≤ 6 months | free T4 ([2]; 0.175 mg of T4 OD, in the 6th month): free T4 rose | free T4 levels ([2]; T4 titrated to doses ranging from 0.1 mg OD to 0.25 mg OD): 28 pmol/L | duration of dysphoria, nasal congestion, palpitations, insomnia, anorexia, night sweats, cold intolerance, weakness etc. ([2]; dose reduced to 0.05 mg of T4 q4hours): 8 weeks | free T4 rise [2, 8]: 22% | weight loss [2, 8]: 2-3 lbs

N[C@@H](Cc1cc(I)c(Oc2ccc(O)c(I)c2)c(I)c1)C(=O)O [T3, 3,5,3′ triiodo-L-thyronine]
biological half-life [3]: approximately 1 days | bound within the blood stream (protein binding) [1]: 99.6% | stability (iodine atoms removed by hydrolysis) [4]: more unstable | time to palpitations, anxiety, stiffness, chest tightness, insomnia, sclerotic skin changes, sweating and heat intolerance after initiating therapy ([2]; 0.005 mg of T3 q3:25hours): ≤ 1 week | time to palpitations, anxiety, stiffness, chest tightness, insomnia, sclerotic skin changes, sweating and heat intolerance after initiating therapy ([2]; 0.035 mg of T3 OD): ≤ 1 week
